One compound from patent publication US20050080055A1, “Method of treating breast cancer with androgen receptor antagonists” (priority 2003, published 2005) can be followed below.

What all share (test): Sulforhodamine B (SRB) cytotoxicity assay
Common to all, as to assay type: cell-based
(The SRB assay estimates cell density from bound dye.)

For one assay, the system named is PC-3. Particulars: Homo sapiens. As for the experimental part:
(§1) PPC-1, LNCaP, TSU, PC-3, and DU145 were grown in PRMI-1640 medium containing 2 mM L-glutamine supplemented with 10% fetal bovine serum (FBS). Cells were maintained in a 5% CO2/95% air humidified atmosphere at 37° C.
(§2) The SRB Assay was used to determine cell number during cytotoxocity experiments. The following protocol was used: • 1. Cells were detached with 0.25% trypsin. • 2. Experimental cultures were cultured in 96-well microtiter plates (200 uL growth medium per well; 1,000-200,000 cells per well). • 3. Cultures were fixed with 50 uL 50% TCA (4° C.). (see cell fixation protocol for details). • 4. Fixed cells were stained with 50 uL 0.4% (wt/vol) SRB in 1% acetic acid for 10 minutes. • 5. SRB was removed and the cultures were quickly* rinsed 5 times with 1% acetic acid to remove unbound dye.** * quickly performing rinsing process is to prevent desorption of protein-bound SRB ** completely remove residual wash solution by sharply flicking plates over sink. • 6. Cultures were air-dried overnight until there is no visible moisture. • 7. The cellular protein-bound SRB was dissolved with 200 uL unbuffered Tris base (10 mM, pH 10.5) for 30 minutes on a rocking platform shaker. • 8. Absorbance was read at 540 nm. Fixation of Cells Attached to the Plastic Substratum
(§3) The following protocol was used for fixing cells: • a. 50 uL of 50% TCA (4° C.) were gently layered on the top of growth medium in each well to make a final TCA concentration of 10%. • b. Cultures were incubated at 4° C. for 1 hour. • c. Cultures were washed 5 times with tap water to remove TCA, growth medium, low-molecular-weight metabolites, and serum protein. • d. Plates were air-dried until there was no visible moisture.
(§4) The IC50s of I-31, I-29, S-NTBA and Compound V in different prostate cancer cell lines (DU 145, PC-3, TSU, PPC-l and LNCaP), in a breast cancer cell line (MCF-7), in other cancer cell lines ([…]) and in a control cell line (CV-1) after 1 and 4 days of incubation with the drug, are shown in Tables 2A and B.

The next assay deals with DU 145. The note with it: Homo sapiens. The protocol:
as §1, §2, §3, §4

Another assay deals with PPC-1. The note with it: Homo sapiens. As for the experimental part:
as §1, §2, §3, §4

The next assay deals with LNCaP. Particulars: Homo sapiens. The protocol: as §1, §2, §3, §4
The next assay has as its system TSU. The note with it: Homo sapiens, 96 h; drug incubation time 4 days. The protocol:
as §1, §2, §3, §4

The next assay deals with TCCSUP. The note with it: Homo sapiens, TCC-SUP.
The next assay has as its system HT-29. Particulars: Homo sapiens.
The subject of a further assay is MCF-7. The note with it: Homo sapiens. The protocol:
as §2
The following protocol was used for fixing cells: • a. 50 uL of 50% TCA (4° C.) were gently layered on the top of growth medium in each well to make a final TCA concentration of 10%. • b. Cultures were incubated at 4° C. for 1 hour. • c. […]

Where [1] appears, read: 24 h, drug incubation time 1 day.
[2] abbreviates: 96 h, drug incubation time 4 days.

As for `C[C@@](O)(CBr)C(=O)Nc1ccc([N+](=O)[O-])c(C(F)(F)F)c1` [S-NTBA], the IC50 (commonly the midpoint of a concentration-inhibition curve) in the assay on PC-3 (PC-3, 24 h, drug incubation time 1 day) was 7.9 ± 0.7 µM; in the assay with PC-3 (PC-3, 96 h, drug incubation time 4 days) it was 3.7 µM; with DU 145 (DU-145, 24 h, drug incubation time 1 day) it was 5.5 ± 0.6 µM; with DU 145 (DU-145, 96 h, drug incubation time 4 days) it was 4.6 µM; with PPC-1 (PPC-1, 24 h, drug incubation time 1 day), 1.7 ± 0.2 µM; in the assay on PPC-1 (PPC-1, 96 h, drug incubation time 4 days), 2.7 µM. In addition, the IC50 with LNCaP (setting [1]) is 1.6 ± 0.5 µM; in the assay with LNCaP (setting [2]), 1.8 µM; with TSU, 2.9 µM; with TCCSUP (setting [1]), 9.5 ± 3.6 µM; in the assay on TCCSUP (setting [2]) it was 4.6 µM; in the assay with HT-29 (HT-29, 24 h, drug incubation time 1 day) it was 19.8 ± 1 µM. The IC50 in the assay on HT-29 (HT-29, 96 h, drug incubation time 4 days) is 10.8 µM; in the assay on MCF-7 (MCF7, 24 h, drug incubation time 1 day), 3.3 ± 0.6 µM; in the assay on MCF-7 (MCF7, 96 h, drug incubation time 4 days) it was 3.3 ± 0.6 µM.
